The target of the experiment is T1, PfHtrA2 (HtrA2/Omi serine protease) (Plasmodium falciparum, UniProt A0A143ZXD4).
T1 construct: gene PF3D7_0812200; protease domain (135–290 aa; HtrA2-protease), histidine-tagged, expressed in E. coli
T1 sequence (A0A143ZXD4 135-290): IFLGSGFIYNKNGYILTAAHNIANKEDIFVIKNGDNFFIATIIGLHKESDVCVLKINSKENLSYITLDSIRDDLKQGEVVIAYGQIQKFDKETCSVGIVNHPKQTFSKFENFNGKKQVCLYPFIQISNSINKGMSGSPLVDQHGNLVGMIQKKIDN
The experiment is described as follows: fluorogenic protease activity assay of the recombinant protease domain, concentration-dependent inhibition. The class given is biochemical.

In the case of `O=C1C(=Cc2ccc(-c3ccccc3[N+](=O)[O-])o2)C(=O)N(c2ccccc2)C(=S)N1c1ccccc1` [ucf-101], the IC50 (in general, the point on the concentration scale where inhibition reaches its midpoint) is 8.1 µM.
